Entries after “also recorded” stand apart in the source; their conditions may differ. Where two headings read alike, the source gives them in different places.
Assays:
[1] = Third PK study: intravenous dose on day 1 or on day 6 after 5 days oral dosing; format: in vivo, female Swiss Albino mice; details: for half-life / clearance / Vd / AUC(0-inf) / AUC(0-t) / C0: female, Swiss Albino, mouse, plasma, iv, 5 mg/kg
Experimental: In a third study female Swiss Albino mice were administered intravenously (bolus, 5 mL/kg) dose of 5 mg/kg of the compound of formula (I). Group 1 (9 mice) received a single i.v. dose administration on day 1. Group 2 (9 mice) received daily oral administration of 10 mg/kg of the compound of formula (I) from day 1 to day 5 following by a single i.v. dose administration of 5 mg/kg of the compound of formula (I) on day 6. PK samples were collected on day 1 for group 1 and on day 6 for group 2. The formulation vehicle consisted of ethanol, PEG 400 and citric acid 20 mM (10/10/80; v/v/v) in water for injection (WFI). Blood samples were taken pre-dose and at 0.083, 0.25, 0.5, 1, 2, 6, 12, and 24 h post-dose administration (3 mice/time point). In each of the three studies blood was collected via the sephanous vein into K2-EDTA tubes kept on ice until centrifugation at 4° C. Plasma was stored at ap-proximately-80° C. […] PK parameters were calculated using Phoenix® WinNonLin 6.4. PK analysis was based on sparse sampling.

MDA-MB-231 tumor cells = assay: MDA-MB-231 TNBC xenograft study
Experimental: Female NCr nu/nu nude mice (CharlesRiver laboratories) of 8-12 weeks of age were subcutaneously (s.c.) inoculated in the flank with 5×10^6 MDA-MB-231 tumor cells. Randomization into treatment groups (8 mice per group) was made when the mean tumor size was 100-150 mm3.
Body weights and tumor volumes were determined at least twice per week by measuring two dimensions with calipers and applying the formula “V=(L×W2)/2”, where V is the tumor volume, and L and W are the tumor length and width respectively. […] Mice were also culled if the BWL was determined to be >15% for 3 consecutive days. Any mice with >10% BWL received a dosing holiday until the BWL returned to <10%. All animal protocols were reviewed and approved by the relevant local committees in USA (IACUC) where the studies were performed.

biotinylated PLK1 = biotinylated PLK1 (Homo sapiens, UniProt P53350); assay: Target residence time assay (Biacore T200 surface plasmon resonance), PLK1; format: binding; details: SPR, 22° C.
Experimental: The affinity, i.e. the equilibrium dissociation constant (KD) ([…]), of the compound of formula (I) against TTK and PLK1 were determined using a Biacore T200TM surface plasmon resonance instrument using recombinant expressed TTK kinase domain (amino acids 519-808) or biotinylated PLK1. The immobilization of TTK was performed as described in Maia et al. Annals of Oncology, 2015; 26:2180-2192. The immobilization of biotinylated PLKI was performed as described in Willemsen-Seegers et al. Journal of Molecular Biology, 2017; 429:574-586. The subsequent single cycle kinetic assays were performed at 22° C. using a compound concentration gradient of 1, 3.6, 10, 31.6 and 100 nM for TTK and 10, 31.6, 100, 316 and 1000 nM for PLK1, a contact time of 100 s and a flow rate of […]. The dissociation period was 1200-1800 s and a correction for an unstable surface using a blank run with buffer was performed.

[2] = Maximum tolerated dose (MTD) in mice; details: mouse, in vivo
tumor-derived TTK = biological target: T1, tumor-derived TTK (Homo sapiens, UniProt P33981); assay: Tumor TTK target occupancy in MDA-MB-231 xenograft-bearing mice; format: in vivo
T1 construct: TTK target occupancy was also measured in tumors derived from MDA-MB-231 xenograft-bearing mice; from tissue; host or cells: MDA-MB-231 xenograft tumours grown in mice
T1 sequence (P33981 1-857): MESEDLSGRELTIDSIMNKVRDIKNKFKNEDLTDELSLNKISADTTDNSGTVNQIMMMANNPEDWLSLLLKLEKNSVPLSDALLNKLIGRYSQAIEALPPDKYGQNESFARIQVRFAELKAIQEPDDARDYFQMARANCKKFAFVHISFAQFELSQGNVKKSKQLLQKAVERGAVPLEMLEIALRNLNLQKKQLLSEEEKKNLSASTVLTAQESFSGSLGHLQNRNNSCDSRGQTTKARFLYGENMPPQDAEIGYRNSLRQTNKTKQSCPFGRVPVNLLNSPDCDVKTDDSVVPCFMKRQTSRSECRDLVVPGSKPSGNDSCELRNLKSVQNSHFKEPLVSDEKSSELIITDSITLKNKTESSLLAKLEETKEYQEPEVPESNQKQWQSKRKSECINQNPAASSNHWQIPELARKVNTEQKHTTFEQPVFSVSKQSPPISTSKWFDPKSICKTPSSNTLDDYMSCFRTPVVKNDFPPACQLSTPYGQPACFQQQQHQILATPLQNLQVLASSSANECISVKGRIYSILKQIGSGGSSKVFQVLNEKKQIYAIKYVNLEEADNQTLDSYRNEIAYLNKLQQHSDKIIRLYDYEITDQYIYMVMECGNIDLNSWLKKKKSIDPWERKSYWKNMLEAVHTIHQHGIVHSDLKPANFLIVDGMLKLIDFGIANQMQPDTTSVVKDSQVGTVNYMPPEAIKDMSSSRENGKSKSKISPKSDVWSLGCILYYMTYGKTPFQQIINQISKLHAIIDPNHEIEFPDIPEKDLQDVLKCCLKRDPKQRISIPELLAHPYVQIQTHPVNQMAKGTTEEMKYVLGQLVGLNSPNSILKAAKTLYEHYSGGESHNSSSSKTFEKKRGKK
Experimental: Prolonged TTK target occupancy was also measured in tumors derived from MDA-MB-231 xenograft-bearing mice treated with intermittent i.v. dosing regimen of compound of formula (I). […]

[3] = Group 1, Day 1: single 5 mg/kg i.v., female mice
[4] = Group 2, Day 6: 5 mg/kg i.v. after 10 mg/kg oral daily for 5 days, female mice

Chain of biotinylated PLK1 (P53350 whole entry, the tested form may be a part): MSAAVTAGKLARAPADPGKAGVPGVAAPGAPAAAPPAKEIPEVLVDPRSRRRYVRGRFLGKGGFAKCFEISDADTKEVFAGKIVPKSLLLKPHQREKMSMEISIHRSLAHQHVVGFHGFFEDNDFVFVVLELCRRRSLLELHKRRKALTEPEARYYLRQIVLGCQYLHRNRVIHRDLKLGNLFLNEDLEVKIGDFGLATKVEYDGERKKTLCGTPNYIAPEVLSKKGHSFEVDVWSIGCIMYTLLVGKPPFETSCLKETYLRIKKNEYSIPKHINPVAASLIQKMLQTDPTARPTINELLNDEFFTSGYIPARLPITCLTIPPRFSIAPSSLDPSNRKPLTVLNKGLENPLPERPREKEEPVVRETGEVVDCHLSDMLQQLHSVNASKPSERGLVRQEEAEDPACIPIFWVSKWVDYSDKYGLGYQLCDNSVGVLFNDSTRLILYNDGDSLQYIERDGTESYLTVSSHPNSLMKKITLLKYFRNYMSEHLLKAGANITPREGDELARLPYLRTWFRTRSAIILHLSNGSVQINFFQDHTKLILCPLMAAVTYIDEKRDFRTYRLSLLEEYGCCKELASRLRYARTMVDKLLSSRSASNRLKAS

COc1cc(N2CCNCC2)ccc1Nc1ncc2c(n1)-n1ccc(C(=O)Nc3c(C)cccc3C)c1CC2 [compound of formula (I)]
concentrations at 24 hours lower than C0 ([1]; 5 mg/kg i.v.): more than 100 fold
maximum AUCinf extrapolation ([1]; 5 mg/kg i.v.): ≤ 2.54%
AUC_% extrapolated [1, 3]: 2.54%
Clast [1, 3]: 5.4 ng/mL
AUC_% extrapolated [1, 4]: 1.65%
Clast [1, 4]: 4.29 ng/mL
half-life ([1]; 5 mg/kg i.v., both groups, read-out: half-life): 4 to 4.7 h
clearance ([1]; 5 mg/kg i.v., both groups, read-out: plasma clearance): 55.4 to 57.9 mL/min/kg
Vd ([1]; 5 mg/kg i.v., both groups, read-out: volume of distribution): 15.4 to 19 L/kg
AUC(0-inf) [1, 3]: 1440 ng·h/mL
AUC(0-t) [1, 3]: 1400 ng·h/mL
C0 [1, 3]: 636 ng/mL
clearance ([1]; Group 1, Day 1: single 5 mg/kg i.v., female mice, read-out: CL): 57.9 mL/min/kg
half-life ([1]; Group 1, Day 1: single 5 mg/kg i.v., female mice, read-out: T1/2 (converted)): 4.7 h
Vd ([1]; Group 1, Day 1: single 5 mg/kg i.v., female mice, read-out: Vss): 19 L/kg
AUC(0-inf) [1, 4]: 1500 ng·h/mL
AUC(0-t) [1, 4]: 1480 ng·h/mL
C0 [1, 4]: 627 ng/mL
clearance ([1]; Group 2, Day 6: 5 mg/kg i.v. after 10 mg/kg oral daily for 5 days, female mice, read-out: CL): 55.4 mL/min/kg
half-life ([1]; Group 2, Day 6: 5 mg/kg i.v. after 10 mg/kg oral daily for 5 days, female mice, read-out: T1/2 (converted)): 4 h
Vd ([1]; Group 2, Day 6: 5 mg/kg i.v. after 10 mg/kg oral daily for 5 days, female mice, read-out: Vss): 15.4 L/kg
Tumor-free (%) (cured based on pathological analysis) (MDA-MB-231 tumor cells; 25 mg/kg, QW, IV): 25%
Tumor-free (pathological evaluation) (MDA-MB-231 tumor cells; 25 mg/kg, QW, IV, mouse 2 and 3): no detectable residual tumor cells; also recorded: no neoplastic epithelial cells (residual tumor cells) were observed
Tumor-free (pathological evaluation) (MDA-MB-231 tumor cells; 25 mg/kg, QW, IV, mouse 2 and 3, listed as Formula (I)): Yes
Tumor-free (pathological evaluation) (MDA-MB-231 tumor cells; 25 mg/kg, QW, IV, mouse 8): two small aggregates of neoplastic cells at the inoculation site; also recorded: still displayed some neoplastic tissue
Tumor-free (pathological evaluation) (MDA-MB-231 tumor cells; 25 mg/kg, QW, IV, mouse 8, listed as Formula (I)): No
local finding leading to treatment stop at Day-30 (MDA-MB-231 tumor cells; 2QW MTD i.v. dosing, repeated IV-injections): tail vein irritations (scabbing)
efficacy of 0.5×MTD i.v. dosing versus MTD daily oral dosing (MDA-MB-231 tumor cells; FIG. 3 and FIG. 4): equipotent efficacy
animals with no measurable/palpable tumor mass (MDA-MB-231 tumor cells; QW MTD i.v. until Day-98, observed Day-80 to Day-125, two of eight animals (FIG. 3 study)): 25%
residual tumor cells by H&E (two animals without palpable tumor) (MDA-MB-231 tumor cells; QW MTD i.v., FIG. 3 study, Day-125): tumor-free
efficacy of MTD i.v. dosing versus MTD oral daily treatment (MDA-MB-231 tumor cells; QW and 2QW i.v., FIG. 3 and FIG. 4): far superior
drug-related animal deaths (MDA-MB-231 tumor cells; all i.v. QW and 2QW treatments, FIG. 1): no drug-related animal deaths recorded
body weight loss (MDA-MB-231 tumor cells; dosing at the MTD, i.v., FIG. 1): ≤ 10%
anti-tumor effect (MDA-MB-231 tumor cells; i.v. MTD-dosing (QW 25 mg/kg, 2QW 12.5 mg/kg), FIG. 1): tumor stasis and tumor regressions were observed
tolerability (MDA-MB-231 tumor cells; mouse, in vivo): relatively well tolerated, with no animal deaths
tumor volume of three of eight tumors after treatment cessation (MDA-MB-231 tumor cells; weekly i.v. MTD group, 20 days observation after cessation on D100): ≤ 6 mm3
target-residency on PLK1 (biotinylated PLK1): just a few minutes
MTD ([2]; iv, 2QW): 12.5 mg/kg
MTD ([2]; iv, QW): 25 mg/kg
MTD ([2]; po, orally daily): 7.5 mg/kg
time TTK completely occupied after last dose (tumor-derived TTK; IV twice-weekly, MTD dose, MDA-MB-231 tumors): at least 72 h
time tumor-derived TTK fully drug-occupied after last administration (tumor-derived TTK; IV weekly MTD dosing, repeat experiment): up to 6 days

Source: patent publication US20250057844A1, “METHODS OF TREATING NEOPLASTIC DISEASES” (SILLAJEN, INC., priority 2021, published 2025)
